The EC50 is the midpoint of the concentration-response curve. By AC50 is commonly meant the concentration at which the activity in the assay is half-maximal.

Drawing on ChEMBL document CHEMBL1201862, “PubChem BioAssay data set” (2004), this text covers EC50 and AC50 for 37 molecules.

The target of one test is T1, Streptokinase A (Streptococcus pyogenes serotype M1, UniProt P10520).
T1 sequence (P10520 whole entry): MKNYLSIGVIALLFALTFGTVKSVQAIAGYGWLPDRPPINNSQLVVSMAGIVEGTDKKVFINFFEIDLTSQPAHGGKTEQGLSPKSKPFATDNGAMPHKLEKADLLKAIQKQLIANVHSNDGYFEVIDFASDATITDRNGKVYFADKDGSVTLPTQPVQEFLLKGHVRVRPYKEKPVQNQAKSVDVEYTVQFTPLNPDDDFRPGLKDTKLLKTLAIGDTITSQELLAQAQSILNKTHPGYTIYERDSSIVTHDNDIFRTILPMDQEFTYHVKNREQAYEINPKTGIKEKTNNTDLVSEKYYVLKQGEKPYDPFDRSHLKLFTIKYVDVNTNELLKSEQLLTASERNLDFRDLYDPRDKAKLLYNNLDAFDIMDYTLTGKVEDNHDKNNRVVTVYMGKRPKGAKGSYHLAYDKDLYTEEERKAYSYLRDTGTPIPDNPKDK
Put plainly: viability-normalized secreted streptokinase activity reduction – plasminogen activation absorbance, OD405, dose response (AID 1914).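 Also: secreted streptokinase activity via plasminogen activation per viability signal from cell pellet.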 It counts as functional, Streptococcus pyogenes M1 GAS.

A further test has as its system Streptococcus. In words: GAS UMAA2166 growth inhibition – luminescence, BacTiterGlo, counter-screen for streptokinase expression inhibitor project, dose response (AID 1915).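 Also: potency for reduction of bacterial viability or growth.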 The format is functional, organism-based. For orientation: Counterscreens check selectivity or assay interference.
Test [1] has as its system Streptococcus sp. 'group A'. Put plainly: Streptococcus pyogenes SK(-)GAS viability under kanamycin – luminescence, BacTiterGlo, confirmation, counter-screen for streptokinase expression inhibitor project, dose response (AID 1900). It counts as functional, organism-based.
The target in test [2] is T2, Heat shock factor protein 1 (Mus musculus, UniProt P38532).
T2 sequence (P38532 whole entry): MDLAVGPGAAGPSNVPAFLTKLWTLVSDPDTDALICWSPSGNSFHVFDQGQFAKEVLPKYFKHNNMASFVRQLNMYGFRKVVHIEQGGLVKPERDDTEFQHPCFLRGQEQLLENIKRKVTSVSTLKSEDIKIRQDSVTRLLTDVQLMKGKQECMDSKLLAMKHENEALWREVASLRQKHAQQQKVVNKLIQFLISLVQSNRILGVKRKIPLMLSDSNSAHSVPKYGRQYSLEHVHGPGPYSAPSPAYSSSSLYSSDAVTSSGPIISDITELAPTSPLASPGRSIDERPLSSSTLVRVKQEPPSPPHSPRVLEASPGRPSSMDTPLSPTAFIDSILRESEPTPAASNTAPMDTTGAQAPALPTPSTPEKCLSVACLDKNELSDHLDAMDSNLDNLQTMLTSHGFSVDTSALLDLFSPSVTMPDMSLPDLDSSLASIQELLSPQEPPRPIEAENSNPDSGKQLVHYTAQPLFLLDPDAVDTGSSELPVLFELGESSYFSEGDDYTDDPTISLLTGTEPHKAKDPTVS
In words: decrease of HSF1-responsive luciferase luminescence – cell-based, NIH3T3, dose retest, confirmation (AID 2382).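 Also: NIH3T3 fibroblasts with HSF1-driven luciferase reporter stressed by proteasome inhibitor MG132; luminescence from HSF1-driven luciferase expression after 8 hours of MG132 stress.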 It counts as functional.

Test [3] in a line: cells. It counts as functional, cell-based.
Test [4] can be described thus: cells. The format is functional, cell-based. The source holds these as a separate data set.
The target of test [5] is Luciferin 4-monooxygenase (Photinus pyralis, UniProt P08659). In words: inhibition of purified Photinus pyralis luciferase – biochemical, luminescence, dose response (AID 1891).
Sequence of Luciferin 4-monooxygenase (P08659 whole entry): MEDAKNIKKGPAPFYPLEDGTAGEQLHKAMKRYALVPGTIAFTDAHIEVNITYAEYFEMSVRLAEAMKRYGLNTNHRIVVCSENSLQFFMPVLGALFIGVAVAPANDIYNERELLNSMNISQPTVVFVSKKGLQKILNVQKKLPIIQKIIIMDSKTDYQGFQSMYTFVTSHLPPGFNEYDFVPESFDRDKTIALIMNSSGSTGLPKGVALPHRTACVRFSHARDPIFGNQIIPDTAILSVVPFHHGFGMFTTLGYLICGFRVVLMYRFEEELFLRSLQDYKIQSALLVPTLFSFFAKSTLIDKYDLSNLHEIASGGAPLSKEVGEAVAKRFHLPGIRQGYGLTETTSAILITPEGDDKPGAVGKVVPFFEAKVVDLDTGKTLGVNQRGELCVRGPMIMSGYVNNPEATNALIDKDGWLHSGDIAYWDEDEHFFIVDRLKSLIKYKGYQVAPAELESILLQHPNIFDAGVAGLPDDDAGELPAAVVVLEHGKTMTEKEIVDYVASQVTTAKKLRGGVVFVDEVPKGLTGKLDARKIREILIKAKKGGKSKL
Test [6] in a line: Luminescence Cell-Based Dose Confirmation HTS to Identify Inhibitors of Platelet Dense Granule Release. [Related pubchem assays: 1663 (Primary HTS), 1678 (Summary of Project)]. It counts as functional.
The nature of test [7]: loss of viability in HepG2 cells – cell-based, CellTiter-Glo, cherry-picked, cytotoxicity control for Shn3 inhibitor project, dose response (AID 624134). The format is functional.
Test [8] is described as follows: reduction of Shn3 3'UTR-driven luciferase in osteoblasts – cell-based, Clone20 osteoblasts, firefly luciferase, cherry-picked, dose response (AID 624132).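 Also: firefly luciferase luminescence from reporter carrying the Shn3 3'UTR in osteoblasts.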 It counts as functional.
The nature of test [9]: non-specific 3'UTR reporter inhibition in Clone20-Shn3RL – cell-based, Renilla luciferase, cherry-picked, counter-screen for Shn3 inhibitor project, dose response (AID 624133). It counts as functional.
The target in another test is Cytochrome P450 2C19 (Homo sapiens, UniProt P33261). In words: Cytochrome panel assay with activity outcomes. Panel member name: p450-cyp2c19 Compounds with AC50 equal or less than 10 uM are considered active. It counts as functional. Conditions: read-out: AC50.
Sequence of Cytochrome P450 2C19 (P33261 whole entry): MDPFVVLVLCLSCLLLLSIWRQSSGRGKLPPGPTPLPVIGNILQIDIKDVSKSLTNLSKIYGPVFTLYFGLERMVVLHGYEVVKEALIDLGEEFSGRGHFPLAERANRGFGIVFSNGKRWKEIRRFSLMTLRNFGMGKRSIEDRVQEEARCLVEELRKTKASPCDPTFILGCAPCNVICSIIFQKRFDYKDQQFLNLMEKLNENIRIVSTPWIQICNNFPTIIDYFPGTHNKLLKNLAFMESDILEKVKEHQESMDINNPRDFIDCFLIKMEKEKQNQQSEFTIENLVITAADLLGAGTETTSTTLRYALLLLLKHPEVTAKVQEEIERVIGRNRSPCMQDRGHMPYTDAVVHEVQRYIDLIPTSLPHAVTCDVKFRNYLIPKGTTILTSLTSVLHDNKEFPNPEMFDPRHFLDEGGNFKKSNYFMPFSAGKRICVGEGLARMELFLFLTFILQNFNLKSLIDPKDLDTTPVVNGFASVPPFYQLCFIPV
Test [10] can be described thus: alpha-synuclein stem-loop luciferase translation blockers – H4 neuroglioma cells, luminescence, confirmation (AID 1988). It counts as functional, cell-based.
Test [11] is described as follows: luciferase reporter signal suppression in cells – H4 neuroglioma cells, luminescence, dose response (AID 1990). It counts as functional, cell-based.
Test [12] in a line: Luminescence Cell-Based Dose Response HTS to Identify Inhibitors of 5'UTR Stem-Loop Driven Prion Protein mRNA Translation in H4 Neuroglioblastoma Cells. [Related pubchem assays: 1827 (Project Summary), 1813 (Primary HTS)]. The format is functional.
Test [13] is described as follows: Luminescence Cell-Based Dose Response HTS to Identify Activators of Luciferase Translation or Activity in H4 […] Cells. [Related pubchem assays: 1829 (Project Summary), 1814 (Primary HTS)]. The format is functional.
Test [14] is described as follows: Luminescence Cell-Based Dose Confirmation HTS to Identify Activators of 5'UTR Stem-Loop Driven Alpha-Synuclein mRNA Translation in H4 Neuroglioblastoma Cells. [Related pubchem assays: 1829 (Project Summary), 1814 (Primary HTS)]. The format is functional.
Another test deals with H4. In words: Luminescence Cell-Based Dose Response HTS to Identify Activators of 5'UTR Stem-Loop Driven Prion Protein mRNA Translation in H4 Neuroglioblastoma Cells. [Related pubchem assays: 1829 (Project Summary), 1814 (Primary HTS)]. The format is functional. Conditions: Homo sapiens.
A short description of test [15]: NIH3T3 cell viability loss – ATP luminescence, mouse fibroblasts, counter-screen, dose response (AID 2010).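 Also: cells exposed to compound for about 90 hours before reading.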 The format is functional, cell-based.
Test [16] is described as follows: Trypanosoma cruzi growth suppression in host cells – NIH3T3 host cells, beta-gal luminescence, confirmation (AID 2044).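 Also: intracellular parasites grown in NIH/3T3 mouse fibroblasts as host cells; luminescent beta-galactosidase reporter signal from transgenic T. cruzi replicating inside host cells; inhibitors lower the luminescence signal.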 It counts as functional, cell-based.

Activity calls are given as the source filed them. A value given as a limit tells only on which side of the number the result lay.

In the case of `CCCOc1ccc(C2C(C(=O)c3cc4ccccc4o3)=C(O)C(=O)N2c2cc(C)on2)cc1OC` (stereo not drawn), the EC50 was > 150 µM (not active) on Streptokinase A, 5.24 µM (active) with Streptococcus and 1.2 µM (active) in test [1].

As to `CCc1nn2c(=O)c(S(=O)(=O)Nc3cccc(F)c3)c(C)nc2s1`, the EC50 in test [2] is reported as > 195 µM (not active).

With `O=C(CSc1ccccc1)Nc1cccc(NC(=O)c2ccco2)c1`, the EC50 in test [2] is given as > 195 µM (not active).

As to `CC(=O)N1CCC(=NNc2nc3ccccc3[nH]2)CC1`, the EC50 was 32.3 µM (active) in “cells [3]” and > 350 µM (not active) in the test “cells [4]”.

On to `CCCN(Cc1ccccc1)C(=S)NC(=O)c1ccccc1[N+](=O)[O-]`, for which the EC50 in [2] was > 195 µM (not active).

In the case of `Cc1ccc(-c2cnn(-c3ccccc3)c2N)cc1`, the values for the EC50 in test [5] and in [6] were 1.92 µM (active) and 2.57 µM (active), respectively.

`COc1ccc(CCNC(=O)c2ccc(CNS(=O)(=O)c3ccc(C(C)(C)C)cc3)cc2)cc1OC`: the EC50 was > 150 µM (not active) on Streptokinase A and 35.9 µM (active) in the test on Streptococcus.

Turning to `CC1C/C(=N/Nc2nc3ccccc3[nH]2)CC(C)(C)C1` (stereo not drawn), in test [2], the EC50 is given as > 195 µM (not active).

As for `COC(=O)c1ccc(C(C(=O)NCc2ccccc2)N(Cc2ccco2)C(=O)c2cnccn2)cc1` (stereo not drawn), the EC50 in the test “cells [3]” and in “cells [4]” was > 350 µM (not active) each time.

Consider `COc1ccc(CC(N)c2csc(NC(=O)c3cc(C(C)(C)C)nn3Cc3ccccc3)n2)cc1` (stereo not drawn), for which the values for the AC50 in test [7], in [8] and in [9] were 9.69 µM (active), 9.53 µM (active) and 22.9 µM (active), respectively.

Take `O=S(=O)(c1ccccc1)N1CN2CCN(C2)C1`: in test [2], the EC50 was > 195 µM (not active).

With `CCn1nnnc1SCC(=O)NC1CCCC1`, on Cytochrome P450 2C19, the AC50 was 35.5 µM (inconclusive). Besides, the EC50 in test [5] and in test [6] was > 112 µM (not active) throughout.

Regarding `COc1ccc(CCN2CC(C(=O)NCCc3ccc(C(F)(F)F)cc3)CCC2=O)cc1` (stereo not drawn), the EC50 in [5] and in [6] was > 112 µM (not active) in each case.

Consider `Cc1ccc(/C(O)=C/C=N/c2ccccn2)cc1`, for which the EC50 in test [10] was 0.188 µM (active); in test [11], 3.18 µM (active); in test [12], 1.4 µM (active); in test [5] it was 1.64 µM (active); in test [2], 4.24 µM (active); in test [6], 5.11 µM (active).

With `COc1cc(OC)c2c(c1)OCC1CON(C)C21` (stereo not drawn), the concentration giving a half-maximal response (EC50) in test [2] was > 195 µM (not active).

Consider `O=S(=O)(c1ccc(F)cc1)N(Cc1ccco1)Cc1cc2ccccc2nc1O`, for which the EC50 in [5] and in [6] was > 112 µM (not active) in each case.

Consider `COc1cccc(/C=N/NC(=O)c2cnccn2)c1`, for which, in test [2], the EC50 is on record as > 195 µM (not active).

For `COc1ccc(/C=N/NC(=S)Nc2cc(S(=O)(=O)N3CCOCC3)ccc2N2CCOCC2)cc1O`, the EC50 in the test “cells [3]” and in “cells [4]” was > 350 µM (not active) throughout.

In the case of `CC(C)(C)c1ccc(C(=O)NC(=S)N2CCCC2)cc1`, the EC50 in [2] is reported as > 195 µM (not active).

Regarding `COc1ccccc1N(C)S(=O)(=O)c1ccc(C(=O)Nc2cc(F)ccc2C)cc1`, the values for the AC50 in test [7], in test [8] and in [9] were > 70 µM (inactive), 13.8 µM (active) and 26.5 µM (active), respectively.

For the molecule `O=C(CSc1nnc(-c2ccco2)n1Cc1ccco1)NCc1ccccc1`, the half-maximal effective concentration (EC50) in “cells [3]” and in the test “cells [4]” was > 350 µM (not active) throughout.

`CC(C)c1ccc(-c2c(C#N)c(N)nc3c2CCCCC3)cc1`: the EC50 was 41.9 µM (active) in test [10]; > 350 µM (not active) in “cells [3]”; > 350 µM (not active) in “cells [4]”; > 120 µM (not active) in test [11]; > 120 µM (not active) in test [12].

In the case of `CC(C)OCCCNCC(O)c1ccccc1` (stereo not drawn), the EC50 in [5] and in test [6] was > 112 µM (not active) each time.

Turning to `CCOc1ccc(C2C(C(=O)NC)=C(C)Nc3nc4ccccc4n32)cc1OC` (stereo not drawn), the EC50 in test [5] and in test [6] was > 112 µM (not active) in each case.

For `O=C(N/N=C/c1cc2cc3c(cc2nc1Cl)OCO3)c1ccncc1`, the concentration for a half-maximal effect (EC50) in the test “cells [3]” is listed as > 350 µM (not active); in “cells [4]”, > 350 µM (not active); in [5], > 112 µM (not active); in test [6] it was > 112 µM (not active).

As to `COCCn1c(-c2ccc(OC)cc2)cnc1SCC(=O)Nc1ccc(OC)cc1OC`, the concentration giving a half-maximal response (EC50) in the test “cells [3]” and in the test “cells [4]” was > 350 µM (not active) in each case.

On to `CCn1c(SCC(=O)c2cc(C)ccc2C)nc2cc(S(=O)(=O)N3CCOCC3)ccc21`, for which the EC50 in the test “cells [3]” and in the test “cells [4]” was > 350 µM (not active) each time.

On to `COc1ccc(S(=O)(=O)N2CCN(C(=O)c3cc(-c4ccc(Br)cc4)[nH]n3)CC2)cc1OC`, for which the AC50 in test [7] is 55.6 µM (active); in [8], 4.55 µM (active); in [9], 4.76 µM (active).

Consider `CCOC(=O)c1cnn(-c2ccccc2)c1-n1cccc1`, for which the EC50 in [2] is given as > 195 µM (not active).

Take `CCCCCOc1ccc(Br)cc1CSC(=N)N`: the figures for the AC50 in [7], in [8] and in [9] were 11.3 µM (active), 1.47 µM (active) and 10.5 µM (active), respectively.

For `O=Cc1c(-c2ccc(Cl)cc2)oc2ccc(O)cc12`, the EC50 in test [2] was 18 µM (active).

In the case of `S=C(Nc1ccc(Nc2ccccc2)cc1)NN1CCOCC1`, the EC50 in test [13] was 56.1 µM (active); in test [14], > 120 µM (not active); with H4, > 120 µM (not active); in test [2], > 195 µM (not active).

`O=C(Nc1ccccn1)c1c(O)c2cccc3c2n(c1=O)CCC3`: the EC50 in test [5] and in test [6] was > 112 µM (not active) each time.

Turning to `CCOC(=O)Cc1ccc2sc(-c3ccccc3)nc2c1`, the EC50 was 1.54 µM (active) in [5] and 2.68 µM (active) in test [6].

As for `CC(C)(C)n1nnnc1C(c1cccs1)N1CCCC2(CCCCC2)C1` (stereo not drawn), the values for the AC50 in test [7] and in test [8] were > 70 µM (inactive) and 21.7 µM (active), respectively. Moreover, the EC50 in [15] was > 60 µM (not active); in test [16], 2.15 µM (active).

In the case of `Cn1ccnc1SCC(=O)Nc1ccc2c(c1)OC(F)(F)O2`, the EC50 in [5] and in [6] was > 112 µM (not active) each time.

In the case of `CCCn1c2ccccc2c2cnn(CC(=O)NC3CCCC(C)C3C)c(=O)c21` (stereo not drawn), the EC50 in “cells [3]” and in “cells [4]” was > 350 µM (not active) throughout.
